# Test results: US20070056052A1, “Methods of generating knock-out rodents” (priority 2001, published 2007)
# Entries after “also recorded” stand apart in the source; their conditions may differ.
# How the values were obtained:
# male rats (SD, F344, WF) = experiment: Effects of ENU treatment on male rat fertility (breeding to same-strain females); assay type: in vivo; details: for % fertile males: weeks 7-26 post-ENU
# Description: (§1) ENU mutagenesis rat protocol: Pathogen-free inbred Wistar Furth (WF), inbred Fischer-344 (F344) and outbred Sprague Dawley (SD) male and female rats were obtained from Harlan Sprague Dawley, Inc. (Indianapolis, Ind.). All rats were given Teklad Lab Blox chow (Harlan Teklad, Madison, Wis.), acidified water ad libitum, and were housed under a 12-h light/12-h dark cycle. After a one week acclimation period, nine-week-old male rats were administered ENU as a single intraperitoneal injection; for a split dose, rats were injected with ENU once at 9 weeks of age and again at 10 weeks of age. One gram of ENU (Sigma) was dissolved in 10 mls of 95% ethanol and then diluted with 90 mls of phosphate citrate buffer prior to injection. All injections of ENU were given in the morning hours. To characterize the effect of ENU treatment on fertility in the various rat strains, mutagenized males were paired with untreated females of the same strain for consecutive 2-3 week periods, beginning 3-5 weeks after the first ENU treatment and continuing a minimum of 26 weeks post-ENU. We observed female rats for vaginal plugs, gross pregnancy and date of birth/size of litters. For our phenotypic mutant (phenodeviant) rat screening experiments, ENU-treated SD male rats were bred with SD female rats and all F1 pups were visually checked for gross abnormalities in physical development or behavior as compared to littermates at least twice prior to weaning at approximately 21 days of age. A subset of the F1 phenodeviant rats identified was bred to SD rats to determine inheritance of the observed phenotypic mutation. Several of the heritable phenodeviant rat lines are currently being maintained and backcrossed to eliminate residual ENU-induced genetic changes not associated with the phenotypic mutation.
# Optimization of ENU dosages: We examined several rat strains, inbred WF and F344 rats and outbred SD rats in which groups of male rats were given either single or split doses of ENU. These male rats were then bred to same-strain female rats at various times post-ENU to test for fertility (Table 1). The three rat strains were unable to regain fertility following large doses of ENU. The WF strain was extremely sensitive to ENU-induced sterility. […] The SD and F344 strains responded in a similar manner with maximum ENU doses of 100-150 mg/kg, allowing for some percentage of rats to remain fertile or recover fertility; however, the F344 strain was more sensitive to split dose protocols compared to the SD rats. […] This phenomenon was also true for the both the F344 and WF rat strains. […] It also appears from the SD and F344 fertility data shown in Table 1 that these rat strains were more likely to remain fertile or regain fertility following a split dose of ENU versus a single dose when the total dose exposure was equal. In addition, average litter size was reduced in both the SD and F344 strains around weeks 1-9 post-ENU (data not shown), the same time period in which we observed reduced fertility in the ENU-treated males.
# SD rats = experiment: Heritability test of F1 phenodeviant rats bred to SD rats; assay type: in vivo, rat
# Description: as §1
# Phenodeviant rat production: Multiple ENU dosing protocols in the SD rat strain determine their germline mutagenic potential by breeding ENU-treated SD males to females of the same strain to produce F1 offspring. These pups were examined for readily observable physical or behavioral abnormalities. Phenodeviants were identified at all doses listed in Table 2 with a variety of abnormalities observed. Phenodeviant F1 pups were born at various times between 6-52 weeks post-ENU treatment of male founders. The most frequent abnormalities visually identified were those of the eyes, tail, and growth. […] Selected phenodeviant rat F1 pups were maintained and bred to determine the heritability of the physical abnormalities (Table 3). […] These abnormalities were diverse (Table 4).
# male rats = experiment: Toxicity and lifespan observation of ENU-treated male rats; assay type: in vivo, rat
# Description: as §1, with “For our phenotypic mutant (phenodeviant) rat screening experiments, ENU-treated SD male rats were bred with SD female rats and all F1 pups were visually checked for gross abnormalities in physical development or behavior as compared to littermates at least twice prior to weaning at approximately 21 days of age. A subset of the F1 phenodeviant rats identified was bred to SD rats to determine inheritance of the observed phenotypic mutation. Several of the heritable phenodeviant rat lines are currently being maintained and backcrossed to eliminate residual ENU-induced genetic changes not associated with the phenotypic mutation.” left out
smiles,measurement,setting,value
"CCN(N=O)C(N)=O [ENU, N-ethyl-N-nitrosourea]",fertility of treated males,"male rats (SD, F344, WF); F344, 75 mg/kg",All rats remained fertile
same,rats that maintained fertility,"male rats (SD, F344, WF); F344, 100 mg/kg given in either a single or split dose",about 60%
same,% fertile males,"male rats (SD, F344, WF); F344, single dose 75 mg/kg i.p.",100%
same,% fertile males,"male rats (SD, F344, WF); F344, single dose 100 mg/kg i.p.",67%
same,% fertile males,"male rats (SD, F344, WF); F344, single dose 120 mg/kg i.p.",0%
same,% fertile males,"male rats (SD, F344, WF); F344, split dose 2 × 50 mg/kg",60%
same,% fertile males,"male rats (SD, F344, WF); F344, split dose 2 × 60 mg/kg",40%
same,% fertile males,"male rats (SD, F344, WF); F344, split dose 2 × 75 mg/kg",0%
same,% fertile males,"male rats (SD, F344, WF); F344, split dose 2 × 100 mg/kg",0%
same,maximum ENU doses allowing some percentage of rats to remain fertile or recover fertility,"male rats (SD, F344, WF); SD and F344 strains",100 to 150 mg/kg
same,average litter size,"male rats (SD, F344, WF); SD and F344 strains, around weeks 1-9 post-ENU (data not shown)",reduced
same,% fertile males,"male rats (SD, F344, WF); SD, single dose 75 mg/kg i.p.",100%
same,% fertile males,"male rats (SD, F344, WF); SD, single dose 100 mg/kg i.p.",80%
same,% fertile males,"male rats (SD, F344, WF); SD, single dose 120 mg/kg i.p.",33%
same,% fertile males,"male rats (SD, F344, WF); SD, single dose 150 mg/kg i.p.",0%
same,% fertile males,"male rats (SD, F344, WF); SD, single dose 200 mg/kg i.p.",0%
same,fertility of treated males,"male rats (SD, F344, WF); SD, split dose 2×50 mg/kg or 2×60 mg/kg, after a brief recovery period",fully fertile
same,% fertile males,"male rats (SD, F344, WF); SD, split dose 2 × 50 mg/kg",100%
same,% fertile males,"male rats (SD, F344, WF); SD, split dose 2 × 60 mg/kg",100%
same,% fertile males,"male rats (SD, F344, WF); SD, split dose 2 × 75 mg/kg",20%
same,% fertile males,"male rats (SD, F344, WF); SD, split dose 2 × 100 mg/kg",0%
same,maximum total dose after which fertile males were obtained,"male rats (SD, F344, WF); WF strain",50 mg/kg
same,male rats permanently sterilized,"male rats (SD, F344, WF); WF, 25 mg/kg single injection",approximately 70%
same,% fertile males,"male rats (SD, F344, WF); WF, single dose 25 mg/kg i.p.",30%
same,% fertile males,"male rats (SD, F344, WF); WF, single dose 35 mg/kg i.p.",33%
same,% fertile males,"male rats (SD, F344, WF); WF, single dose 50 mg/kg i.p.",25%
same,% fertile males,"male rats (SD, F344, WF); WF, single dose 75 mg/kg i.p.",0%
same,% fertile males,"male rats (SD, F344, WF); WF, single dose 100 mg/kg i.p.",0%
same,% fertile males,"male rats (SD, F344, WF); WF, split dose 2 × 15 mg/kg",17%
same,% fertile males,"male rats (SD, F344, WF); WF, split dose 2 × 25 mg/kg",17%
same,% fertile males,"male rats (SD, F344, WF); WF, split dose 2 × 50 mg/kg",0%
same,% fertile males,"male rats (SD, F344, WF); WF, split dose 2 × 75 mg/kg",0%
same,"ENU-induced heritable phenotype, observed phenotype","SD rats; Line 18, F1 founder female, initial ENU dose 2 × 60 mg/kg",crooked tail & slit eyes
same,Heritable phenotype confirmed in multiple litters,"SD rats; Line 18, initial ENU dose 2 × 60 mg/kg",yes
same,"ENU-induced heritable phenotype, observed phenotype","SD rats; Line 19, F1 founder male, initial ENU dose 2 × 50 mg/kg",growth on tail
same,Heritable phenotype confirmed in multiple litters,"SD rats; Line 19, initial ENU dose 2 × 50 mg/kg",yes
same,"ENU-induced heritable phenotype, observed phenotype","SD rats; Line 28, F1 founder female, initial ENU dose 2 × 60 mg/kg",red ring eyes
same,Heritable phenotype confirmed in multiple litters,"SD rats; Line 28, initial ENU dose 2 × 60 mg/kg",yes
same,"ENU-induced heritable phenotype, observed phenotype","SD rats; Line 29, F1 founder female, initial ENU dose 2 × 60 mg/kg",oblong face
same,Heritable phenotype confirmed in multiple litters,"SD rats; Line 29, initial ENU dose 2 × 60 mg/kg",yes
same,"ENU-induced heritable phenotype, observed phenotype","SD rats; Line 32, F1 founder female, initial ENU dose 2 × 60 mg/kg",slit eyes
same,Heritable phenotype confirmed in multiple litters,"SD rats; Line 32, initial ENU dose 2 × 60 mg/kg",yes
same,"ENU-induced heritable phenotype, observed phenotype","SD rats; Line 38, F1 founder male, initial ENU dose 2 × 60 mg/kg",curved tail
same,Heritable phenotype confirmed in multiple litters,"SD rats; Line 38, initial ENU dose 2 × 60 mg/kg",yes
same,"ENU-induced heritable phenotype, observed phenotype","SD rats; Line 42, F1 founder female, initial ENU dose 2 × 60 mg/kg",bald spots
same,Heritable phenotype confirmed in multiple litters,"SD rats; Line 42, initial ENU dose 2 × 60 mg/kg",yes
same,"ENU-induced heritable phenotype, observed phenotype","SD rats; Line 60, F1 founder female, initial ENU dose 2 × 60 mg/kg",scaly skin
same,Heritable phenotype confirmed in multiple litters,"SD rats; Line 60, initial ENU dose 2 × 60 mg/kg, only one litter to date",no^a
same,"ENU-induced heritable phenotype, observed phenotype","SD rats; Line 61, F1 founder male, initial ENU dose 2 × 60 mg/kg",swollen feet
same,Heritable phenotype confirmed in multiple litters,"SD rats; Line 61, initial ENU dose 2 × 60 mg/kg, only one litter to date",no^a
same,Heritable phenotype confirmed in multiple litters,"SD rats; Line 63, initial ENU dose 2 × 60 mg/kg",yes
same,# phenodeviants heritable,"SD rats; SD, ENU dose 100 mg/kg",0
same,# phenodeviants non-heritable,"SD rats; SD, ENU dose 100 mg/kg",4
same,"# phenodeviants unknown (sterile, not evaluated, being evaluated or died)","SD rats; SD, ENU dose 100 mg/kg",4
same,# phenodeviants heritable,"SD rats; SD, ENU dose 120 mg/kg",0
same,# phenodeviants non-heritable,"SD rats; SD, ENU dose 120 mg/kg",2
same,"# phenodeviants unknown (sterile, not evaluated, being evaluated or died)","SD rats; SD, ENU dose 120 mg/kg",1
same,# phenodeviants heritable,"SD rats; SD, ENU dose 2 × 50 mg/kg",1
same,# phenodeviants non-heritable,"SD rats; SD, ENU dose 2 × 50 mg/kg",4
same,"# phenodeviants unknown (sterile, not evaluated, being evaluated or died)","SD rats; SD, ENU dose 2 × 50 mg/kg",2
same,# phenodeviants heritable,"SD rats; SD, ENU dose 2 × 60 mg/kg",9
same,# phenodeviants non-heritable,"SD rats; SD, ENU dose 2 × 60 mg/kg",9
same,"# phenodeviants unknown (sterile, not evaluated, being evaluated or died)","SD rats; SD, ENU dose 2 × 60 mg/kg",61
same,heritability of mutations in phenodeviants tested,"SD rats; SD, single dose protocols",none of the six phenodeviant rats tested showed heritable mutations
same,lifespan and tumors of fertile mutagenized male rats,male rats; about one year post-ENU,"shortened, with many developing skin and kidney tumors and lymphomas at approximately one year of age"
same,acute toxicity to male rats,"male rats; all doses of Table 1, SD, F344, WF",none of the ENU doses used were toxic to the male rats; also recorded: None of the doses listed in Table 1 were acutely toxic
